pIC50: −log10 of the molar value.
Experiments:
[1] = system: A549; test: cells; conditions: Homo sapiens
[2] = system: MCF7; test: cells; conditions: Homo sapiens
[3] = system: MKN-45; test: cells; conditions: Homo sapiens
[4] = system: MCF7; test: cells; format: functional, cell-based; conditions: Homo sapiens
[5] = system: Vero; test: cells; format: ADME, cell-based; conditions: Chlorocebus sabaeus
[6] = system: RWPE-1; test: cells; format: ADME, cell-based; conditions: Homo sapiens
[7] = system: PC-3; test: cells; format: functional, cell-based; conditions: Homo sapiens
[8] = system: MDA-MB-231; test: cells; conditions: Homo sapiens
[9] = biological target: T1, Histone deacetylase 1 (Homo sapiens, UniProt Q13547); test: Inhibition of HDAC1 (unknown origin) using (FAM)-labeled acetylated peptide as substrate measured after 17 hrs by fluorescence assay
T1 sequence (Q13547 whole entry): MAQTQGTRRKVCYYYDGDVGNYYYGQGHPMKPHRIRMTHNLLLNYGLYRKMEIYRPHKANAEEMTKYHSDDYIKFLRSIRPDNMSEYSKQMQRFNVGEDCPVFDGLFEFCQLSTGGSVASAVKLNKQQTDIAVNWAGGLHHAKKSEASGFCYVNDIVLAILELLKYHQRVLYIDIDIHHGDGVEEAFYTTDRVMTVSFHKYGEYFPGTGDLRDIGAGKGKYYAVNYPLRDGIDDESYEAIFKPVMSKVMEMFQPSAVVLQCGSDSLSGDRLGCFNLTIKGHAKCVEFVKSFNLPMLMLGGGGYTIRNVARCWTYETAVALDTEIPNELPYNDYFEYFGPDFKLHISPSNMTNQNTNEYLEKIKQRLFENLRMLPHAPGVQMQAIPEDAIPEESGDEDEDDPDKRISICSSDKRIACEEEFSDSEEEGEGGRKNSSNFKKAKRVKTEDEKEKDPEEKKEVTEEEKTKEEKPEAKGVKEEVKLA

[10] = biological target: Histone deacetylase 2 (Homo sapiens, UniProt Q92769)
Sequence of Histone deacetylase 2 (Q92769 whole entry): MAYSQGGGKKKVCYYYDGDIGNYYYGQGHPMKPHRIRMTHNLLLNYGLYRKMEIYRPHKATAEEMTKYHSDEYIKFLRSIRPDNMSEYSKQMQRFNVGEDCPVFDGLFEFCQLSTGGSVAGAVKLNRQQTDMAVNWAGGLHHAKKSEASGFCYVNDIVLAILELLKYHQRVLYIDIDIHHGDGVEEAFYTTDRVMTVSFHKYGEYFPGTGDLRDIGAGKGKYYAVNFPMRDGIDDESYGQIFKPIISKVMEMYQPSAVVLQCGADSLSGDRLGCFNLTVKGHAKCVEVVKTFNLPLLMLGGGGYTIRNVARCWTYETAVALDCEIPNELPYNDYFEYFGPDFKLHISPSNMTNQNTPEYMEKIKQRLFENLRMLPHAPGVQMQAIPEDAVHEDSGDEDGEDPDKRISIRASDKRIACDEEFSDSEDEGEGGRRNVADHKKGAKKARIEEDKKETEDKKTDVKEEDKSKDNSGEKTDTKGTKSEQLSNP

[11] = biological target: T2, Histone deacetylase 8 (Homo sapiens, UniProt Q9BY41); test: Inhibition of HDAC8 (unknown origin) using (FAM)-labeled acetylated peptide as substrate measured after 17 hrs by fluorescence assay
T2 sequence (Q9BY41 whole entry): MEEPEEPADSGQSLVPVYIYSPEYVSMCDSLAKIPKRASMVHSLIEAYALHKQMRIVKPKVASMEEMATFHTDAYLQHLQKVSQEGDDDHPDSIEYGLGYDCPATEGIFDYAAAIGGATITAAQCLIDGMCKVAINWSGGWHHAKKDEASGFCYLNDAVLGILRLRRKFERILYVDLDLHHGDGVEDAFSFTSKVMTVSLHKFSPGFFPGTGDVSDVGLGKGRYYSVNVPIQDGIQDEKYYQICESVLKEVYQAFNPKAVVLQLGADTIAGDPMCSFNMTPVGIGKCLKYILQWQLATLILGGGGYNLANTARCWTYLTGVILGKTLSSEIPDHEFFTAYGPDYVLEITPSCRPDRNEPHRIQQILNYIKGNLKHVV

[12] = biological target: T3, Polyamine deacetylase HDAC10 (Homo sapiens, UniProt Q969S8); test: Inhibition of HDAC10 (unknown origin) using (FAM)-labeled acetylated peptide as substrate measured after 17 hrs by fluorescence assay
T3 sequence (Q969S8 whole entry): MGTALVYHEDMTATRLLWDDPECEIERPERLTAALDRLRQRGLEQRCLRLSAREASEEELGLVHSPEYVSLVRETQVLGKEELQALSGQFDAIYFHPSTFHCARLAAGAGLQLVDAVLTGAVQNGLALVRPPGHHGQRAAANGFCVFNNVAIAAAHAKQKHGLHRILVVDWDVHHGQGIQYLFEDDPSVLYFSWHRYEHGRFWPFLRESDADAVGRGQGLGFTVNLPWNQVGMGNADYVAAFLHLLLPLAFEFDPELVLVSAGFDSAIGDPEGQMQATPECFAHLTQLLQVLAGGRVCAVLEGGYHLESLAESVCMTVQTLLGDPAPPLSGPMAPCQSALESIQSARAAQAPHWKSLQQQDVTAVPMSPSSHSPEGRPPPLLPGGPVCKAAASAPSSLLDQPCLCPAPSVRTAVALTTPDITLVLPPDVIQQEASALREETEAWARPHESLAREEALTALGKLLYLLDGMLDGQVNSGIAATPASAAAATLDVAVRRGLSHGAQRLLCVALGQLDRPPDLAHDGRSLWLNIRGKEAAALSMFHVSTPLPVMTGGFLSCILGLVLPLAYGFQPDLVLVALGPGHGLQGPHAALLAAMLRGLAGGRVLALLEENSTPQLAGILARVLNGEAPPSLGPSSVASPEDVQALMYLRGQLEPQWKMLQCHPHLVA

[13] = biological target: T4, Protein deacetylase HDAC6 (Homo sapiens, UniProt Q9UBN7); test: Inhibition of HDAC6 (unknown origin) using (FAM)-labeled acetylated peptide as substrate measured after 17 hrs by fluorescence assay
T4 sequence (Q9UBN7 whole entry): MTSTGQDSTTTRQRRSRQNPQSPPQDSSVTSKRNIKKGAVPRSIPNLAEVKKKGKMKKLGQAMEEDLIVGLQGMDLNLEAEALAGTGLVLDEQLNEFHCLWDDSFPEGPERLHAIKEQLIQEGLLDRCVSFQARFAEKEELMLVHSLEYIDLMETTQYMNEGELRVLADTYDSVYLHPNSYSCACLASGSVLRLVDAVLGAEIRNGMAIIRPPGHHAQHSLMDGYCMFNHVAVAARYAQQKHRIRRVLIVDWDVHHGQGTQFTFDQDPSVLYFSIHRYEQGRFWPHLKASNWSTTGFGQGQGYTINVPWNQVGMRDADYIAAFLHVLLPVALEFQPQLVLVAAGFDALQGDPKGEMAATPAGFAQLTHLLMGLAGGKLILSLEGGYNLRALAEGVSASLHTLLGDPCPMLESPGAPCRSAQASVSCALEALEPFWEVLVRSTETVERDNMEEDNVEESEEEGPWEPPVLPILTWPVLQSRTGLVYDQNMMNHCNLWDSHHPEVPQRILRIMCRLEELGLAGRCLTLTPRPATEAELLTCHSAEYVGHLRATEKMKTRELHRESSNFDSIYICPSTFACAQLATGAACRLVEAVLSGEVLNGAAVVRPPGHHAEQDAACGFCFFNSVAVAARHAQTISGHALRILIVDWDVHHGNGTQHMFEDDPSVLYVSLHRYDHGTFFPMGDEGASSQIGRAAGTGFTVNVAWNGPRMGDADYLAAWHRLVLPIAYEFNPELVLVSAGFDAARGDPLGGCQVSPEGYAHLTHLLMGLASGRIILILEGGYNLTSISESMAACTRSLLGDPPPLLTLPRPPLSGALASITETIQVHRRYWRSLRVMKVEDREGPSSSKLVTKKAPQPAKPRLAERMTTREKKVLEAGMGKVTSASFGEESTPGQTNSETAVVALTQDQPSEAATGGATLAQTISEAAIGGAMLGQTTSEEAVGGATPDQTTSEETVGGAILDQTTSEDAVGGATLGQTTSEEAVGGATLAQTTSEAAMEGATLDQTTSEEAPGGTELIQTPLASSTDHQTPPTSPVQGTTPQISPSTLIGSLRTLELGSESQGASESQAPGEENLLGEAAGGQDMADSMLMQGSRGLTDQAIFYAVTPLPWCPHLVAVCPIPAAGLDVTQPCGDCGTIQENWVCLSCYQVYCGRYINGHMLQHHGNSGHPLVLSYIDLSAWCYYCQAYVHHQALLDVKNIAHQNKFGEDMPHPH

[14] = biological target: Histone deacetylase; format: cell-based, Homo sapiens; conditions: hela
[15] = biological target: Histone deacetylase; format: cell-based, Homo sapiens; conditions: hela; remark: listed apart in the source
[16] = biological target: T1, Histone deacetylase 1; test: Inhibition of recombinant human GST-fused HDAC1 expressed in HEK293 cells Fluor-de-lys as substrate measured after 60 mins by fluorescence assay
[17] = biological target: T4, Protein deacetylase HDAC6; test: Inhibition of recombinant human His-tagged HDAC6 expressed in baculovirus infected insect cells using Fluor-de-lys as substrate measured after 60 mins by fluorescence assay
[18] = biological target: T1, Histone deacetylase 1; test: Inhibition of recombinant human FLAG/His-tagged HDAC1 expressed in baculovirus expression system using Boc-l-Lys(Ac)-AMC as substrate preincubated up to 3 hrs and measured after 35 mins by fluorescence assay
[19] = biological target: Histone deacetylase 3/Nuclear receptor corepressor 2 (HDAC3/NCoR2) (Homo sapiens) (UniProt O15379+Q9Y618); test: Inhibition of human recombinant full length C-terminal His-tagged HDAC3 (1 to 428 residues)/N-terminal GST-tagged NCOR2 (395 to 489 residues) expressed in insect cells using Boc-l-Lys(Ac)-AMC as substrate preincubated up to 3 hrs and measured after 35 mins by fluorescence assay
[20] = biological target: T1, Histone deacetylase 1; test: Inhibition of human HDAC1 using fluorogenic HDAC substrate
[21] = biological target: Histone deacetylase 4 (Homo sapiens, UniProt P56524); test: Inhibition of human HDAC4 using fluorogenic HDAC substrate
Sequence of Histone deacetylase 4 (P56524 whole entry): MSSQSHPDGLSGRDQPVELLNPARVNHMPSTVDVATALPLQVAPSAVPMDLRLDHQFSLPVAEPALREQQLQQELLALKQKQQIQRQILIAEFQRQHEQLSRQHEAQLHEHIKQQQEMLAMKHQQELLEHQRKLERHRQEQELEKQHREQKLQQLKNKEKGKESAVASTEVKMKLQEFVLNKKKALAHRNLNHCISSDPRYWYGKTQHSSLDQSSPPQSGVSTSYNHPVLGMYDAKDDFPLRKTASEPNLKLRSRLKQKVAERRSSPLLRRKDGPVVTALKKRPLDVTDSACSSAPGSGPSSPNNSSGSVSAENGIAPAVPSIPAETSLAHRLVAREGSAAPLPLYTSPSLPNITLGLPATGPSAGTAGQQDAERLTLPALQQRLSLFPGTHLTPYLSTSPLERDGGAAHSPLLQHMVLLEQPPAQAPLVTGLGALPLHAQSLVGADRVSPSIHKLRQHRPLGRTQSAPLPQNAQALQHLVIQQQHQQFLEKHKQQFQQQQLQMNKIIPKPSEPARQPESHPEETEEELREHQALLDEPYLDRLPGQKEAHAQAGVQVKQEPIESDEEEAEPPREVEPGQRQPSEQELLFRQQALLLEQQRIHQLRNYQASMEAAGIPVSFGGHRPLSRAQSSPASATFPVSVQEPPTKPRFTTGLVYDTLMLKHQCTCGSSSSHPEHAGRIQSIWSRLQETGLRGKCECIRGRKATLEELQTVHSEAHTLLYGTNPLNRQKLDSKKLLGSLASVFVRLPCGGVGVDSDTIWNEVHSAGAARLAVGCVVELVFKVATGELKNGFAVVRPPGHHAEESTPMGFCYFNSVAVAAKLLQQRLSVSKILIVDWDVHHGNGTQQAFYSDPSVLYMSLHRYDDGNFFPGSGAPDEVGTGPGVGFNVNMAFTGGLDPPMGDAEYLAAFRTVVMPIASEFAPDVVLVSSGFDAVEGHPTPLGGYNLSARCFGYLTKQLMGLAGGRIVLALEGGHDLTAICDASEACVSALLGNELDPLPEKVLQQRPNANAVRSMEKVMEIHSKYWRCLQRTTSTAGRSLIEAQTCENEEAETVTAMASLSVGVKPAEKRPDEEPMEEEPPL

[22] = biological target: Histone deacetylase 5 (Homo sapiens, UniProt Q9UQL6); test: Inhibition of human HDAC5 using fluorogenic HDAC substrate
Sequence of Histone deacetylase 5 (Q9UQL6 whole entry): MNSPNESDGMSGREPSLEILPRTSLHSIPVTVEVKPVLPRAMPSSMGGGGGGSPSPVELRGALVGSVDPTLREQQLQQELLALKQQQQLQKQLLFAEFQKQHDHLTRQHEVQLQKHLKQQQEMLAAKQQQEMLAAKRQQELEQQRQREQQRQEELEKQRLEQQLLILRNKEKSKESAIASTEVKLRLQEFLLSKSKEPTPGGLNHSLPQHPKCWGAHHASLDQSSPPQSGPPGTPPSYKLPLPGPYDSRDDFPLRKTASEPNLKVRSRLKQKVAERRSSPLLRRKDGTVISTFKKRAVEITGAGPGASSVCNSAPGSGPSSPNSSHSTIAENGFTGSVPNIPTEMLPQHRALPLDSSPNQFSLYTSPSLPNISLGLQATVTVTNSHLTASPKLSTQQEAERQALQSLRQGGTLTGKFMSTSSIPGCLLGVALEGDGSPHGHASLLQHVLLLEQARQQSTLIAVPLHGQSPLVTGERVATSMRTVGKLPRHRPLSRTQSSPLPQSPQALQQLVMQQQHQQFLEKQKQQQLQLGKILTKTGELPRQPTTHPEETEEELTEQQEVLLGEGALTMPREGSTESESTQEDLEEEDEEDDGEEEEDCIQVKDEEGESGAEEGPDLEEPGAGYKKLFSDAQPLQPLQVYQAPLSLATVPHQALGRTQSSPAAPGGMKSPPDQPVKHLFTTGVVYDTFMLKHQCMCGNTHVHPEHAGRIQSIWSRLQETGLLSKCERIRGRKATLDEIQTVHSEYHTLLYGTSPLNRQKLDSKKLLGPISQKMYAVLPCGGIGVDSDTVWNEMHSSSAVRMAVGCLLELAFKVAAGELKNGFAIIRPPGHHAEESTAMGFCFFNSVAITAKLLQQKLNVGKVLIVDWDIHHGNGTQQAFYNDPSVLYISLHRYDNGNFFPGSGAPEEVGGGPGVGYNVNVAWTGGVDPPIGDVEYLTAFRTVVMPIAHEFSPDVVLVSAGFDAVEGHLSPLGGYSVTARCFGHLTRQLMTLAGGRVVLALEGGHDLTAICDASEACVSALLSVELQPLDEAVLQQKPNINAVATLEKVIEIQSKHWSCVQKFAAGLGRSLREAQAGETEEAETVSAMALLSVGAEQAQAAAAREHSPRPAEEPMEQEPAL

[23] = biological target: T4, Protein deacetylase HDAC6; test: Inhibition of human HDAC6 using fluorogenic HDAC substrate
[24] = biological target: T5, Histone deacetylase 7 (Homo sapiens, UniProt Q8WUI4); test: Inhibition of human HDAC7 using fluorogenic HDAC substrate
T5 sequence (Q8WUI4 whole entry): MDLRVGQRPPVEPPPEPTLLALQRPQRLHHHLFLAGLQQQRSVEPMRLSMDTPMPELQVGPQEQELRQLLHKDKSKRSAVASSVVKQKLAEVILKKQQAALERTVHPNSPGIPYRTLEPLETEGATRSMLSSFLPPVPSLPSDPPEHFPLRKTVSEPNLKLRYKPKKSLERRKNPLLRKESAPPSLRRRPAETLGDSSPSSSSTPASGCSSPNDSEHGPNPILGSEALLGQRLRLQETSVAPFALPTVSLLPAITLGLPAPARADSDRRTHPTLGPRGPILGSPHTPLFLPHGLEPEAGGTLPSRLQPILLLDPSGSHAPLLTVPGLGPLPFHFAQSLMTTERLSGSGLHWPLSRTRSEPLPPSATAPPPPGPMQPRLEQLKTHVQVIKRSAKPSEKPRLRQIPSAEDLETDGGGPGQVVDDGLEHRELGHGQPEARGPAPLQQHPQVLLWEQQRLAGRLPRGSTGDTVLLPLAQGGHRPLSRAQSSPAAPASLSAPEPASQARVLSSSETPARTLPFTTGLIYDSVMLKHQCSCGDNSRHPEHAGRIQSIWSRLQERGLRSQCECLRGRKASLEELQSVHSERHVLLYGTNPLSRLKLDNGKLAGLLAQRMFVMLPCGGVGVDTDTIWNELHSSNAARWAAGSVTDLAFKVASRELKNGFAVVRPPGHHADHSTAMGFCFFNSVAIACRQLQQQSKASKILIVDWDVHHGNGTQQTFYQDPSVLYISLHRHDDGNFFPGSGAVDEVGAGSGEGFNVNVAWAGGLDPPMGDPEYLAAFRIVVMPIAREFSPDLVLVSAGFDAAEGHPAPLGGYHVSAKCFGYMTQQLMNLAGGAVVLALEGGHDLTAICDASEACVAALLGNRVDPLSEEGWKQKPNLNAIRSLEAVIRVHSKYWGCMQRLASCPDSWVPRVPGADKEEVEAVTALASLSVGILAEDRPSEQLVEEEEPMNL

[25] = biological target: T2, Histone deacetylase 8; test: Inhibition of human HDAC8 using fluorogenic HDAC substrate
[26] = biological target: Histone deacetylase 9 (Homo sapiens, UniProt Q9UKV0); test: Inhibition of human HDAC9 using fluorogenic HDAC substrate
Sequence of Histone deacetylase 9 (Q9UKV0 whole entry): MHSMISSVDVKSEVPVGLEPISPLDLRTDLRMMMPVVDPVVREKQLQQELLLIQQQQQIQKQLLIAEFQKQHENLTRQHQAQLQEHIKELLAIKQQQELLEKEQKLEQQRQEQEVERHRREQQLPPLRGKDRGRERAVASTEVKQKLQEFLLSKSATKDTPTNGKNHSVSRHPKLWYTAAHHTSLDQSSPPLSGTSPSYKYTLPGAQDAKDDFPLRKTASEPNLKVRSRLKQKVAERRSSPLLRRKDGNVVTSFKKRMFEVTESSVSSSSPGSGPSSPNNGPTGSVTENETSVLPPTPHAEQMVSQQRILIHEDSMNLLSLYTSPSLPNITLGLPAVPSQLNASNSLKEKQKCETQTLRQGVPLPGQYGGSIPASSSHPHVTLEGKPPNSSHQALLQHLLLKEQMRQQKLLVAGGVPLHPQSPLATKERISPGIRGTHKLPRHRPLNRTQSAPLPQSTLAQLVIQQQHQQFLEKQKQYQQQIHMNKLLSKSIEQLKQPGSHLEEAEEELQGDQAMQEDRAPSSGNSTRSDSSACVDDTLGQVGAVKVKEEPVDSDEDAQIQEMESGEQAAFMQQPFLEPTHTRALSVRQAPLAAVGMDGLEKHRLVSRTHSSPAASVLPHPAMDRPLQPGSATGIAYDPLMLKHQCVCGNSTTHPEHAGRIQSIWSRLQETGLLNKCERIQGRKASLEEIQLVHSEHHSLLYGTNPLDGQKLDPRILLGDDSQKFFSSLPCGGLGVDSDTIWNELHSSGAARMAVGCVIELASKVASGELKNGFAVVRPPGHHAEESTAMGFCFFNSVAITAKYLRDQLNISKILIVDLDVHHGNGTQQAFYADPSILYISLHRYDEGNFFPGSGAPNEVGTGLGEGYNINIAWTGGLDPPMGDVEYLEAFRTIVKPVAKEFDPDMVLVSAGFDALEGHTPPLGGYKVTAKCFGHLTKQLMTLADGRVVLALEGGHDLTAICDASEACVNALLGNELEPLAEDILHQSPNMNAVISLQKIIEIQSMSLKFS

[27] = biological target: T3, Polyamine deacetylase HDAC10; test: Inhibition of human HDAC10 using fluorogenic HDAC substrate
[28] = biological target: T6, Histone deacetylase 11 (Homo sapiens, UniProt Q96DB2); test: Inhibition of human HDAC11 using fluorogenic HDAC substrate
T6 sequence (Q96DB2 whole entry): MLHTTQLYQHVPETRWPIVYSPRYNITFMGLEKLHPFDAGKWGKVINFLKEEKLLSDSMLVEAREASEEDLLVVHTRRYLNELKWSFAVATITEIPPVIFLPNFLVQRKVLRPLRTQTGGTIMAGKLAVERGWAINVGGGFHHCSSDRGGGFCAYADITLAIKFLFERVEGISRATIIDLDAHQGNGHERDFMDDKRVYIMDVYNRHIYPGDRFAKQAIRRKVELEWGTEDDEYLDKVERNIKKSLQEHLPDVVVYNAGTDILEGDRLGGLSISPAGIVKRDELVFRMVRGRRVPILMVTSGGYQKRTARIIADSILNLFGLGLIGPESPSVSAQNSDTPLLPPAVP

[29] = biological target: Protein deacetylase HDAC6 (Homo sapiens) (UniProt Q9UBN7); test: Inhibition of human HDAC6 at 100 uM relative to control
[30] = biological target: T2, Histone deacetylase 8; test: Inhibition of human HDAC8 using ZMTFAL as substrate measured after 90 mins by fluorescence assay

Structure (SMILES): CCCCCCC[C@H](OC(=O)[C@@H](CCCCN(O)C=O)NC(=O)c1nc(-c2cc(OC)ccc2O)oc1C)C(C)(C)C(=O)N[C@H]1CCCCN(O)C1=O [AMAMISTATIN A]
- pIC50 [1]: 6.25
- pIC50 [2]: 6.32
- pIC50 [3]: 6.62

Structure (SMILES): CC1(C)C(=O)N(c2ccc(C#N)c(C(F)(F)F)c2)C(=O)N1CCCCc1cn(CCCCCCC(=O)NO)nn1
- pIC50 [4]: 4.84
- pIC50 [5]: < 4.70
- pIC50 [6]: 4.92
- pIC50 [7]: 4.80
- pIC50 [8]: < 4.70

Structure (SMILES): CC1(C)C(=O)N(c2ccc(C#N)c(C(F)(F)F)c2)C(=O)N1Cc1ccc(-c2cn(CCCCCCC(=O)NO)nn2)cc1
- pIC50 [4]: 5.37
- pIC50 [5]: 4.96
- pIC50 [6]: 6.32
- pIC50 [7]: 5.48
- pIC50 [8]: 5.84

Structure (SMILES): Nc1ccccc1NC(=O)CCCCCCC(=O)Nc1ccc(-c2cn(Cc3ccccc3)nn2)cc1
- pIC50 [9]: < 4.52
- pIC50 [10]: < 4.52
- pIC50 [11]: < 4.52
- pIC50 [12]: < 4.52
- pIC50 [13]: < 4.52

Structure (SMILES): CCn1cnc(-c2ccccc2)c1-c1ccc(/C=C/C(=O)NO)cc1
- IC50 [14]: 0.234 µM
- IC50 [15]: 0.132 µM
- pIC50 [16]: 7.55
- pIC50 [17]: 6.97

Structure (SMILES): Nc1cccc(-c2csc(NC(=O)CCCCCCC(=O)Nc3ccccc3N)n2)c1
- pIC50 [9]: 5.60
- pIC50 [10]: 6.83
- pIC50 [11]: < 4.52
- pIC50 [12]: 5.54
- pIC50 [13]: < 4.52

Structure (SMILES): O=C(Nc1cc(-c2ccccc2)ccc1O)c1c(-c2ccc(O)cc2)sc2cc(O)ccc12
- inhibition [18]: 21 to 34%
- inhibition [19]: < 12%

Structure (SMILES): O=C(NO)c1ccc(CN2c3ccccc3C[C@@H]3CCCC[C@H]32)cc1
- pIC50 [20]: < 4.52
- pIC50 [21]: < 4.52
- pIC50 [22]: 4.57
- pIC50 [23]: 7.44
- pIC50 [24]: < 4.52
- pIC50 [25]: 5.28
- pIC50 [26]: 4.60
- pIC50 [27]: < 4.52
- pIC50 [28]: 5.82

Structure (SMILES): O=C(NO)c1ccc(NC(=S)N/N=C/c2ccc(F)cc2)cc1
- inhibition [29]: 23%
- pIC50 [30]: 4.71

Structure (SMILES): O=C(NO)c1ccc(NC(=S)N/N=C/c2ccccc2)cc1
- inhibition [29]: 30%
- pIC50 [30]: 4.56

Source: ChEMBL document CHEMBL4422610, “HDAC as onco target: Reviewing the synthetic approaches with SAR study of their inhibitors” (Eur J Med Chem, 2018)
